# Earlier results as cited in patent US20260337190A1, “CRYSTAL FORM OF PYRIDINOPYRIMIDINONE COMPOUND, ACID SALT THEREOF, CRYSTAL FORM OF ACID SALT THEREOF, AND USE” (Wuhan Humanwell Innovative Drug Research and Development …, priority 2022, published 2026).
# Test system: mutated KRAS and wild-type KRAS in tumor cells
# Settings: cited from earlier work
structure (smiles),measurement,value
CNCc1ccccc1-c1csc([C@@H](C)Nc2nc(C)nc3cc(OC)c(OC)cc23)c1 [BAY-293],reduction of activity of mutated and wild-type KRAS in tumor cells,can effectively reduce the activity of mutated KRAS and wild-type KRAS in tumor cells
